Data on 22 compounds can be found in patent US9815831B2, “3,5-disubstituted-3H-imidazo[4,5-B]pyridine and 3,5-disubstituted-3H-[1,2,3]triazolo[4,5-B] pyridine compounds as modulators of c-Met protein kinases” (Rhizen Pharmaceuticals SA, priority 2012, dated 2017).

Read-outs that look alike come from different tables or passages of the source.

For test [1], the target named is T1, human recombinant Met kinase (Homo sapiens, UniProt P08581).
T1 construct: purchased Cell Signalling Technology, Beverly, Mass
Description: Colorimetric determination of c-Met kinase activity (HTScan Met Kinase Assay Kit). To be noted: for inhibition at 0.1 µM: 100 nM (cells without *), read-out: c-Met Enzyme % inhibition @ 100 nM; for inhibition: cells marked *: tested @ 300 nM, read-out: c-Met Enzyme % inhibition. Format: biochemical. From the text:
1. MET Kinase Assay Protocol:
Colorimetric Determination of c-Met Kinase Activity
The receptor tyrosine kinase c-Met is a heterodimeric transmembrane glycoprotein involved in several cellular processes that aid in tumor progression. Phosphorylation of the tyrosine residues in the c-Met kinase domain is critical for its activity and the resulting down-stream effects. The colorimetric assay allows detection of the phosphorylated form of a biotinylated peptide upon activation of human recombinant Met kinase.
MET Kinase Assay Protocol:
c-Met Kinase activity shall be determined using an HTScan® Met Kinase Assay Kit (Cell Signalling Technology, Beverly, Mass.) with modifications. All incubations are carried out at room temperature. Briefly, 12.5 μl of a 4× reaction cocktail (DTT/Kinase buffer containing appropriate quantity of human Met kinase) is added to each well of a 96-well plate containing 12.5 μl pre-diluted compound of interest and incubated for 5 minutes. After the initial incubation, 25 μl/well of 2×ATP/biotinylated peptide is added and incubated for an additional 30 minutes. The reaction is terminated by the addition of 50 μl/well stop buffer (50 mM EDTA, pH 8.0). The reaction mixture (25 μl/well) is then transferred to a streptavidin coated plate (Perkin Elmer, Cat#4009-0010) containing 75 μl dH2O and incubated for 60 minutes. The plate is washed with 200 μl/well wash buffer (1×PBS, 0.05% Tween-20). After washing, 100 μl/well phospho-tyrosine mAb (1:1000 in wash buffer containing 1% BSA) is added and incubated for 60 minutes. After another round of washes, 100 μl/well europium labelled anti-mouse IgG (1:500 in wash buffer containing 1% BSA) is added and incubated for an additional 30 minutes. Following additional washes, 100 μl/well Delfia^(R) enhancement solution (Perkin Elmer, Cat#1244-105) is added and incubated for 45 minutes. Florescence is measured on a microplate reader (BMG Labtech., Germany) at 340 nm (excitation) and 615 nm (emission) for calculating % inhibition. Data generated can be analyzed further using Graphpad Prism (Graphpad software, San Diego Calif.) for determination of IC50.
Results: The results are as given below in Table 4A, 4B and 4C as % Inhibition or IC50 of c-Met

The subject of a further test is MKN-45. Description: Inhibition of MKN-45 proliferation (MTT). Format: cell-based, human. Conditions: Homo sapiens, MKN-45, Table 4A; for inhibition at 0.1 µM: 100 nM, read-out: MKN45 % inhibition @ 100 nM; for GI50: read-out: MKN45 GI50. The procedure:
3. Inhibition of MKN-45 Proliferation:
Cell proliferation assays were carried out using the high Met expressing human gastric adenocarcinoma cell line, MKN-45, according to the following schedule: • Day 1: Cells were plated in 96-well plates in complete growth medium. • Day 2: Compounds at desired concentrations were added. • Day 5: Cell viability was determined using the 3-[4,5-dimethylthiazol-2-yl]-2,5-diphenyltetrazolium bromide (MTT) dye reduction test. Results: The results are as given as % Inhibition of MKN-45 proliferation at 100 nM and GI50 values in Table 4A to 4C above. 4. Inhibition of c-Met Kinase Phosphorylation in MKN-45 Cells: […]

T1 sequence (P08581 25-1390): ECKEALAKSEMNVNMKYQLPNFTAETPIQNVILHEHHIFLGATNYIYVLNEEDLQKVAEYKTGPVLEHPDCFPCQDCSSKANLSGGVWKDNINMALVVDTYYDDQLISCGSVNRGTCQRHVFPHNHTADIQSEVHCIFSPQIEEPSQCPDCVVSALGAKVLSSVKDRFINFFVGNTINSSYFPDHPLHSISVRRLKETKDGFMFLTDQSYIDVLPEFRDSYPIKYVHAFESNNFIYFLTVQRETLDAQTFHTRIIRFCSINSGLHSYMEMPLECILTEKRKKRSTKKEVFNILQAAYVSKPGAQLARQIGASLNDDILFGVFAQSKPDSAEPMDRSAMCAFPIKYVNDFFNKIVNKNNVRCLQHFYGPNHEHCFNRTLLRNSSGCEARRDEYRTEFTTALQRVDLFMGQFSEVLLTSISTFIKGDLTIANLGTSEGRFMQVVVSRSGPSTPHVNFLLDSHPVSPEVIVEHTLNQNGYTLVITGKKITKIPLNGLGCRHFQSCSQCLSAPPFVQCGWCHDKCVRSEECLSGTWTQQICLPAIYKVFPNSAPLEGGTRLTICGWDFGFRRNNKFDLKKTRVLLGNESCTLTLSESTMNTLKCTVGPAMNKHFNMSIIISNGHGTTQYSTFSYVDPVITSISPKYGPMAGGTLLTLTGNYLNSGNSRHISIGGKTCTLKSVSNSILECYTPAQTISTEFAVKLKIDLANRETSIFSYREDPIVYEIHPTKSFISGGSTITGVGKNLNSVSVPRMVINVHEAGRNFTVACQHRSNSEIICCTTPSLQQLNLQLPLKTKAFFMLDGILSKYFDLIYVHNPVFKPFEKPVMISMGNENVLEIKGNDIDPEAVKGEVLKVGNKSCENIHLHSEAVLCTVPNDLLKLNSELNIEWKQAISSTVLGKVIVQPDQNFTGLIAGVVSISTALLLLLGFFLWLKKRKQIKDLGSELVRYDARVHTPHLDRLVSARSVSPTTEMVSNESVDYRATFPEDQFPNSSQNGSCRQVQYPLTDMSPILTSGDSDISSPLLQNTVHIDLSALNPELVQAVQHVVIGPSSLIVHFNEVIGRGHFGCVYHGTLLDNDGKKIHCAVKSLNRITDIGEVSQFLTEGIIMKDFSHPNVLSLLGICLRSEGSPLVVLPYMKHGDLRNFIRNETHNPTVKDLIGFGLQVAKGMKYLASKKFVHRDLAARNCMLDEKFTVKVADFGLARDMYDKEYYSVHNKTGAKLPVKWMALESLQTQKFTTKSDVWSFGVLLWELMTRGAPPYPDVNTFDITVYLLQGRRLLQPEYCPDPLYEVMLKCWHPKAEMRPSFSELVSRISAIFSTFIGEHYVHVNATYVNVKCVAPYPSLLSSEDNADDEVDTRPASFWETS

Consider `NC(=O)CNC(=O)c1ccc(-c2ccc3nnn(Cc4ccc5cccnc5c4)c3n2)cc1` [Example 1, N-(2-amino-2-oxoethyl)-4-(3-(quinolin-7-ylmethyl)-3H-[1,2,3]triazolo[4,5-b]pyridin-5-yl) benzamide], for which the inhibition at 0.1 µM is 75 to 100% in test [1] (Table 4A) and 0% in the test on MKN-45 (cell printed as a number, not a class letter).
On to `NC(=O)CCNC(=O)c1ccc(-c2ccc3nnn(Cc4ccc5ncccc5c4)c3n2)cc1` [Example 3, N-(3-amino-3-oxopropyl)-4-(3-(quinolin-6-ylmethyl)-3H-[1,2,3]triazolo[4,5-b]pyridin-5-yl)benzamide], for which the inhibition in test [1] (Table 4A) fell in the range of 50 to 75%. Further, in the test with MKN-45 (MKN-45 proliferation), the GI50 fell in the range of 100 to 250 nM.
Turning to `CNC(=O)CCNC(=O)c1ccc(-c2ccc3nnn(Cc4ccc5ncccc5c4)c3n2)cc1` [Example 4, N-(3-(methylamino)-3-oxopropyl)-4-(3-(quinolin-6-ylmethyl)-3H-[1,2,3]triazolo[4,5-b]pyridin-5-yl)benzamide], in test [1] (Table 4A), the inhibition was in the range of 75 to 100%. The 50% growth inhibitory concentration (GI50) with MKN-45 (MKN-45 proliferation) was 250 to 1000 nM.
`O=C(NOCCO)c1ccc(-c2ccc3nnn(Cc4ccc5ncccc5c4)c3n2)cc1` [Example 22, N-(2-hydroxyethoxy)-4-(3-(quinolin-6-ylmethyl)-3H-[1,2,3]triazolo[4,5-b]pyridin-5-yl)benzamide]: the inhibition at 0.1 µM in test [1] (Table 4A) lay within 75 to 100%; in the test on MKN-45 (MKN-45 proliferation), 50 to 75%. Also, the GI50 in the test on MKN-45 (MKN-45 proliferation) lay in the range of 50 to 100 nM.
For `O=C(NOCCO)c1ccc(-c2ccc3nnn(Cc4ccc5ncccc5c4)c3n2)cc1C(F)(F)F` [Example 23, N-(2-hydroxyethoxy)-4-(3-(quinolin-6-ylmethyl)-3H-[1,2,3]triazolo[4,5-b]pyridin-5-yl)-2-(trifluoromethyl)benzamide] the same measures were 75 to 100%, 75 to 100% and 50 to 100 nM.
For `O=C(NOCCO)c1ccc(-c2ccc3nnn(Cc4cc5cccnc5cc4F)c3n2)cc1C(F)(F)F` [Example 24, 4-(3-((7-fluoroquinolin-6-yl)methyl)-3H-[1,2,3]triazolo[4,5-b]pyridin-5-yl)-N-(2-hydroxyethoxy)-2-(trifluoromethyl)benzamide] the same measures were 75 to 100%, 75 to 100% and 25 to 50 nM.
For `Cc1cc(-c2ccc3nnn(Cc4cc5cccnc5cc4F)c3n2)ccc1C(=O)NOCCO` [Example 26, 4-(3-((7-fluoroquinolin-6-yl)methyl)-3H-[1,2,3]triazolo[4,5-b]pyridin-5-yl)-N-(2-hydroxyethoxy)-2-methylbenzamide] the same measures were 75 to 100%, 75 to 100% and 25 to 50 nM.
With `O=C(NOCCO)c1ccc(-c2ccc3nnn(Cc4cc5cccnc5cc4F)c3n2)cc1F` [Example 27, 2-fluoro-4-(3-((7-fluoroquinolin-6-yl)methyl)-3H-[1,2,3]triazolo[4,5-b]pyridin-5-yl)-N-(2-hydroxyethoxy)benzamide], in test [1] (Table 4A), the inhibition at 0.1 µM was in the range of 75 to 100%. In the test with MKN-45 (MKN-45 proliferation), the inhibition at 0.1 µM lay within 75 to 100% and the GI50 was 25 to 50 nM.
For the compound `CC(O)CONC(=O)c1ccc(-c2ccc3nnn(Cc4ccc5ncccc5c4)c3n2)cc1Cl` (stereo not drawn) [Example 28, 2-chloro-N-(2-hydroxypropoxy)-4-(3-(quinolin-6-ylmethyl)-3H-[1,2,3]triazolo[4,5-b]pyridin-5-yl)benzamide], the inhibition at 0.1 µM in test [1] (Table 4A) fell in the range of 75 to 100%. Further, in the test on MKN-45 (MKN-45 proliferation), the inhibition at 0.1 µM lay in the range of 75 to 100% and the GI50 fell in the range of 25 to 50 nM.
Turning to `CCOC(=O)CONC(=O)c1ccc(-c2ccc3nnn(Cc4ccc5ncccc5c4)c3n2)cc1Cl` [Example 29, ethyl 2-(2-chloro-4-(3-(quinolin-6-ylmethyl)-3H-[1,2,3]triazolo[4,5-b]pyridin-5-yl)benzamidooxy)acetate], the inhibition at 0.1 µM in test [1] (Table 4A) lay in the range of 75 to 100%. In the test with MKN-45 (MKN-45 proliferation), the inhibition at 0.1 µM was below 25% and the concentration for 50% growth inhibition (GI50) is 100 to 250 nM.
For `CC(C)(O)CONC(=O)c1c(F)cc(-c2ccc3nnn(Cc4ccc5ncccc5c4)c3n2)cc1F` [Example 34, 2,6-difluoro-N-(2-hydroxy-2-methylpropoxy)-4-(3-(quinolin-6-ylmethyl)-3H-[1,2,3]triazolo[4,5-b]pyridin-5-yl)benzamide] the same measures were 75 to 100%, 75 to 100% and 25 to 50 nM.
For `CC(C)(O)CONC(=O)c1ccc(-c2ccc3nnn(Cc4ccc5ncccc5c4)c3n2)cc1F` [Example 35, 2-fluoro-N-(2-hydroxy-2-methylpropoxy)-4-(3-(quinolin-6-ylmethyl)-3H-[1,2,3]triazolo[4,5-b]pyridin-5-yl)benzamide] the same measures were 75 to 100%, 75 to 100% and 25 to 50 nM.
With `Cc1cc(-c2ccc3nnn(Cc4ccc5ncccc5c4)c3n2)ccc1C(=O)NOC[C@@H](C)O` [Example 38, (R)—N-(2-hydroxypropoxy)-2-methyl-4-(3-(quinolin-6-ylmethyl)-3H-[1,2,3]triazolo[4,5-b]pyridin-5-yl)benzamide], the inhibition at 0.1 µM (in test [1] (Table 4A); in the test on MKN-45 (MKN-45 proliferation)) was 75 to 100% throughout.
Take `Cc1cc(-c2ccc3nnn(Cc4ccc5ncccc5c4)c3n2)ccc1C(=O)NOC(C)(C)CO` [Example 39, N-(1-hydroxy-2-methylpropan-2-yloxy)-2-methyl-4-(3-(quinolin-6-ylmethyl)-3H-[1,2,3]triazolo[4,5-b]pyridin-5-yl)benzamide]: the inhibition at 0.1 µM (in test [1] (Table 4A); in the test with MKN-45 (MKN-45 proliferation)) was 75 to 100% each time.
Consider `NC(=O)c1c(F)cc(-c2ccc3nnn(Cc4ccc5c(ccc[n+]5[O-])c4)c3n2)cc1F` [Example 1001, 6-((5-(4-carbamoyl-3,5-difluorophenyl)-3H-[1,2,3]triazolo[4,5-b]pyridin-3-yl)methyl)quinoline 1-oxide], for which the inhibition at 0.1 µM in test [1] (Table 4C) is below 25%.
With `NC(=O)c1ccc(-c2ccc3nnn(Cc4cc5ccc[n+]([O-])c5cc4F)c3n2)cc1Cl` [Example 1002], the inhibition at 0.1 µM in test [1] (Table 4C) is below 25%.
Turning to `NC(=O)c1ccc(-c2ccc3nnn(Cc4ccc5[nH]c(=O)ccc5c4)c3n2)cc1Cl` [Example 1004, 2-chloro-4-(3-((2-oxo-1,2-dihydroquinolin-6-yl)methyl)-3H-[1,2,3]triazolo[4,5-b]pyridin-5-yl)benzamide], in test [1] (Table 4C), the inhibition is below 25%.
With `NC(=O)c1c(F)cc(-c2ccc3nnn(Cc4ccc5[nH]c(=O)ccc5c4)c3n2)cc1F` [Example 1005, 2,6-difluoro-4-(3-((2-oxo-1,2-dihydroquinolin-6-yl)methyl)-3H-[1,2,3]triazolo[4,5-b]pyridin-5-yl)benzamide], in test [1] (Table 4C), the inhibition at 0.1 µM is below 25%.
For `NC(=O)c1c(F)cc(-c2ccc3ncn(Cc4ccc5ncccc5c4)c3n2)cc1F` [Example 1010, 2,6-difluoro-4-(3-(quinolin-6-ylmethyl)-3H-imidazo[4,5-b]pyridin-5-yl) benzamide], the inhibition in test [1] (Table 4C) was below 25%.
Same read-out and setting: then `CCNC(=O)c1ccc(-c2ccc3ncn(Cc4ccc5ncccc5c4)c3n2)cc1Cl` [Example 1013, 2-chloro-N-ethyl-4-(3-(quinolin-6-ylmethyl)-3H-imidazo[4,5-b]pyridin-5-yl)benzamide], with below 25%.
Consider `O=C1NCc2cc(-c3ccc4nnn(Cc5ccc6ncccc6c5)c4n3)ccc21` [Example 1032, 5-(3-Quinolin-6-ylmethyl-3H-[1,2,3]triazolo[4,5-b]pyridin-5-yl)-2,3-dihydro-isoindol-1-one], for which, in test [1] (Table 4C), the inhibition at 0.1 µM was in the range of 75 to 100%.
On the same count and under the same terms, then `O=C1NCc2cc(-c3ccc4ncn(Cc5ccc6ncccc6c5)c4n3)ccc21` [Example 1033, 5-(3-Quinolin-6-ylmethyl-3H-imidazo[4,5-b]pyridin-5-yl)-2,3-dihydro-isoindol-1-one], with below 25%.
